Data: PubChem BioAssay AID588764 (Broad Institute, 2011)
Inconclusive results are not listed. The source made the active and inactive calls. How the calls were made is not given here.

Biological target: Histone acetyltransferase RTT109 (Candida albicans (strain SC5314 / ATCC MYA-2876)) (UniProt Q5AAJ8)
Test: Rtt109/Vps75 acetyltransferase inhibitor potency, dose response, biochemical, cherry-picked hits, plate reader (AID 588764);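 on activity change, negative = inhibition: 0% = neutral control wells and -100% = no enzyme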
Conditions: Rtt109/Vps75 HAT activity

Histone acetyltransferase RTT109 (Candida albicans (strain SC5314 / ATCC MYA-2876)), sequence (Q5AAJ8 whole entry, looked up): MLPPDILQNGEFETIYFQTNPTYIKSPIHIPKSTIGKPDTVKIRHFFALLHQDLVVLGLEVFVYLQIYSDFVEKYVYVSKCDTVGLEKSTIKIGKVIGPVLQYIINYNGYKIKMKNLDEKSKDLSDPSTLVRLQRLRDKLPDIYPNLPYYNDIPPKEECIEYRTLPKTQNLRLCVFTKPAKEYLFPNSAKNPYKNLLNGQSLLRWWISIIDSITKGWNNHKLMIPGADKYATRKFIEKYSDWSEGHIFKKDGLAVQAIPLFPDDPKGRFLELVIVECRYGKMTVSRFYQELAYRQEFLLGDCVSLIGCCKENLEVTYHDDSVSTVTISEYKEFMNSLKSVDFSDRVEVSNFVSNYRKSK

SMILES	AC50 [µM]
O=C(CCC(=O)OCC(=O)c1ccc([N+](=O)[O-])cc1)Nc1ccccc1Cl	8.57
Oc1cc(O)c(CN2CCOCC2)cc1CN1CCOCC1	19.5
Cc1cc(C)c2c(=O)n(CC(=O)N3CCC(N4CCCCC4)CC3)sc2n1	4.72
O=C(O)c1cccc(-n2sc3ccccc3c2=O)c1	10.5
CCc1ccc(C(=O)CSc2ncn[nH]2)cc1	4.11
O=C1C(Cl)=C(N2CCOCC2)C(=O)N1c1ccccc1Cl	14.8
Oc1cc2c(cc1O)[C@H]1c3ccc(O)c(O)c3OC[C@@]1(O)C2	7.81
CC1CCc2c(sc(N)c2C(N)=O)C1 (stereo unspecified)	20.5
Cc1cc(C)c2c(=O)n(CC(=O)Nc3cccc(Cl)c3C)sc2n1	1.98
Cc1ccccc1-n1sc2cc(F)ccc2c1=O	5.9
Cc1ccc2c(c1)C1C[N+](C)(CC(=O)c3ccc(Cl)cc3Cl)CCC1N2C(=O)c1ccc(F)cc1 (stereo unspecified)	13.4
O=S(=O)(NN1CCOCC1)c1ccc(Br)cc1	11.6

Same assay, conditions: Rtt109/Vps75 HAT activity, at 19.5 µM (top of the series)

SMILES	activity change, negative = inhibition
CCN1/C(=C/c2ccc3cc(C)ccc3[n+]2CC)Sc2cc(C)ccc21	inactive
CC(=O)Nc1nc(-c2ccccc2)c(-c2ccccc2)o1	inactive
COc1cc(-c2nnc(SCC(=O)OC3CCCCC3)o2)cc(OC)c1OC	inactive
Cc1cc(C)cc(NC(=O)NC(C)C2CCCO2)c1 (stereo unspecified)	inactive
COc1ccc(C(=O)C(CCC(CNC(C)(C)C)C(=O)c2ccc(OC)cc2)CNC(C)(C)C)cc1 (stereo unspecified)	inactive
COc1cc(/C=N/N=C(N)N)ccc1OCc1ccccc1Cl	inactive
CN(c1ccc(C(=O)Nc2ccc3c(c2)OCO3)cc1)S(C)(=O)=O	inactive
Clc1nc(Nc2ccccc2)nc(Nc2ccccc2)n1	inactive
CC1Cc2ccccc2N1C(=O)c1ccc(N2CCCC2)c([N+](=O)[O-])c1 (stereo unspecified)	inactive
C[C@H](NC(=O)c1ccco1)C(=O)Nc1ccc(S(=O)(=O)N2CCCC2)cc1	inactive
COc1cc(C2NC(=O)C(C#N)=C(S)N2c2ccccc2)ccc1OC(C)C (stereo unspecified)	inactive
COc1ccc(NC(=O)Nc2nnc(-c3cccs3)s2)cc1	inactive
CCOC(=O)C1CCN(S(=O)(=O)c2ccc3c(c2)CC(C)N3C(=O)C2CCC2)CC1 (stereo unspecified)	inactive
COc1ccc(S(=O)(=O)N2CCN(c3ccccn3)CC2)cc1OC	inactive
O=C(Nc1ccc(O)c(-c2nc3ccccc3s2)c1)c1cc(=O)c2ccccc2o1	inactive
O=C(Nc1ccc(Oc2cccnc2)cc1)C1CCN(Cc2cc(Cl)ccc2O)CC1	inactive
CCOc1cc(/C=N/NC(=O)CSc2nncn2C)ccc1OCc1cccc(C)c1	inactive
Cc1c(C(=O)N2CCC[C@H]2CO)oc2c(F)cccc12	inactive
COc1cc2nc(NCCCN3CCN(C)CC3)n3nc(-c4ccccc4)nc3c2cc1OC	inactive
Cc1ccc2c(c1)sc(C)[n+]2CCCS(=O)(=O)[O-]	inactive
CCOC(=O)c1c(CSC(=N)N)n(C)c2cc(Br)c(OC(C)=O)cc12	inactive
Cc1ccc(C#N)c(SCc2nnc(-c3ccc(Cl)cc3)o2)n1	inactive
Nc1ccc(Nc2ccncc2[N+](=O)[O-])cc1	inactive
Cc1ccc2sc(C)[n+](CCO)c2c1	inactive
CCOC(=O)C1=C(C)NC(=S)N(C(C)=O)C1c1ccc(Cl)cc1 (stereo unspecified)	inactive
CCc1cccc(NC(=O)C2CCCN(c3ncnc4c3nc3n4CCCCC3)C2)c1 (stereo unspecified)	inactive
COc1ccc(CN(C)C(=O)c2cc(S(=O)(=O)N3CCCCCC3)ccc2OC)cc1OC	inactive

SMILES	activity change, negative = inhibition
COC(=O)c1ccc(N2C(=O)CC(SCC(=O)Nc3ccc(OC)cc3)C2=O)cc1 (stereo unspecified)	inactive
O=C(NCC(=O)N1CCCCC1)c1ccc2ccccc2c1	inactive
COc1ccc2nc(NC(=O)CN3C(=O)NC4(CCCCC4)C3=O)sc2c1	inactive
COc1cc(SC#N)ccc1N=Cc1c(C)[nH]n(-c2ccc(C)c(C)c2)c1=O	inactive
CCN(CC)CCCNc1nc2cc(OC)c(OC)cc2c2nc(-c3cccnc3)nn12	inactive
CCOc1ccc(N2C(=O)CSC2c2ccncc2)cc1 (stereo unspecified)	inactive
C#CCOCCOCCOCCNc1nc(N2CCN(C(=O)C([C@@H](C)O)n3cc([C@@H](N)CCCCN)nn3)CC2)nc(N2CCN(C(=O)C([C@@H](C)O)n3cc([C@@H](N)CCCCN)nn3)CC2)n1 (stereo partly specified)	inactive
CC(C(=O)NC1CCS(=O)(=O)C1)N1C(=O)/C(=C/c2ccc(Cl)cc2)SC1=S (stereo unspecified)	inactive
CCC(=O)Nc1cc(C)c(OC)c(C)c1	inactive
CN(C)C(CNC(=O)c1ccc(C(=O)c2ccccc2)cc1)c1ccccc1 (stereo unspecified)	inactive
CCOc1ccc(S(=O)(=O)NCCC(=O)Nc2cccc(C(=O)OC)c2)cc1	inactive
Cc1ccc(NC(=S)Nc2ccc(F)cc2)cc1C	inactive
CC(C(=O)Nc1ccc(O)c(C(=O)O)c1)N1C(=O)/C(=C/c2cccs2)SC1=S (stereo unspecified)	inactive
COc1cc(OC)c(NC(=O)CN(C)S(=O)(=O)c2ccc(-c3ccc(=O)[nH]n3)s2)cc1Cl	inactive
COC(=O)c1cc2c(ccn2-c2ccc(F)cc2)n1CC(=O)C(C)(C)C	inactive
COC(=O)c1c(NC(=O)C2CC(C)=C(C)CC2C(=O)O)sc2c1CCCCC2 (stereo unspecified)	inactive
O=C(O)C(Cc1ccccc1)N1C(=O)/C(=C/c2cccs2)SC1=S (stereo unspecified)	inactive
O=C(Nc1ccccc1Cl)c1cc(S(=O)(=O)N2CCCCC2)ccc1N1CCOCC1	inactive
Cn1c(=O)c2c(nc(NC3CCCCC3)n2CC(=O)C23CC4CC(CC(C4)C2)C3)n(C)c1=O	inactive
Nc1c(C(=O)c2ccccc2)oc2ccc([N+](=O)[O-])cc12	inactive
CCOC(=O)c1c(CNCCN(CC)CC)n(C)c2cc(Br)c(OC)cc12	inactive
COCCNC(=O)C1=C(N)C(C(=O)Nc2ccc(C)c(S(=O)(=O)N3CCCCC3)c2)SC1=Nc1ccc(C)cc1C (stereo unspecified)	inactive
CCCCOc1ccc(C2C(C(=O)c3ccc(C)o3)=C(O)C(=O)N2Cc2ccco2)cc1 (stereo unspecified)	inactive
Cc1nn(C2CCS(=O)(=O)C2)c2nc(C3CC3)cc(C(=O)Nc3ccc(C(N)=O)cc3)c12 (stereo unspecified)	inactive
O=C(C1CCCO1)N1CCN(C(=S)Nc2ccc(Cl)cc2Cl)CC1 (stereo unspecified)	inactive
Cc1ccc(-n2c(O)c(C=NCc3ccccn3)c3ccccc3c2=O)cc1C	inactive
CS(=O)(=O)C1=NN2C(=N)/C(=C\c3ccc(OC(=O)c4ccco4)cc3)C(=O)N=C2S1	inactive

SMILES	activity change, negative = inhibition
CCOC(=O)c1c(NC(=O)C[n+]2ccc(Cc3ccccc3)cc2)sc(C)c1C	inactive
CC1Cc2cc(S(=O)(=O)N3CCC(C(=O)N(C)Cc4ccco4)CC3)ccc2N1C(=O)C1CCC1 (stereo unspecified)	inactive
O=C(CSc1nnc2ccccn12)NNC(=O)c1cccc(Cl)c1	inactive
CCOc1cc(S(=O)(=O)N2CCC(Cc3ccccc3)CC2)c(OCC)cc1-n1cnnn1	inactive
CN(C)S(=O)(=O)Oc1ccccc1C(=O)Nc1ccccc1Cl	inactive
CCC(C)NC(=O)C1CCN(S(=O)(=O)c2cc([N+](=O)[O-])ccc2Cl)CC1 (stereo unspecified)	inactive
Cc1nc2ccccc2n1CC(=O)NC1CCCC1	inactive
C=CCOc1ccc(/C(O)=C2\C(=O)C(=O)N(CCOC)C2c2cccnc2)cc1 (stereo unspecified)	inactive
CCOC(=O)c1c(C)n(-c2ccc(C)cc2)c2ccc(OCC(O)CNCC3CCCO3)cc12 (stereo unspecified)	inactive
Fc1ccccc1C1CC(c2ccco2)=Nc2ccccc2S1 (stereo unspecified)	inactive
COc1ccc(-c2nc(-c3cccs3)no2)cc1	inactive
COc1ccc2[nH]c(=O)c(CN(Cc3nnnn3Cc3ccccc3)CC3CCCO3)cc2c1 (stereo unspecified)	inactive
CCOC(=O)c1cc2c(N)c(C(=O)c3cc(C#N)c(SC)nc3C)sc2nc1C	inactive
O=C(Nc1cccc(-c2nc3cccnc3s2)c1)c1cccnc1Cl	inactive
COc1cccc(OC)c1C(=O)Nc1cccc(-c2ccc(N3CCOCC3)nn2)c1	inactive
CC(C)C[C@@H]1CN=C(N)N1C[C@@H]1CCCN1C[C@H](C)N1C[C@@H](Cc2ccccc2)N(CCc2ccc(Cl)c(Cl)c2)C1=N	inactive
CC(C)OC(=O)N(C)c1ccc(C(O)(C(F)(F)F)C(F)(F)F)cc1	inactive
COc1ccccc1C(=O)Nc1ccc(OCC(=O)N2CC(C)CC(C)C2)cc1 (stereo unspecified)	inactive
CCCCCCCCCn1c2c(c(=N)c3c1CCC3)CCC2	inactive
Cc1ccc(C(=O)NCC(=O)OCCOc2ccccc2Cl)cc1	inactive
Cc1ccc(C(=O)NCCNC(=O)COc2ccccc2Cl)cn1	inactive
Fc1ccc(C2CC(c3ccco3)=Nc3ccccc3S2)cc1 (stereo unspecified)	inactive
CC(=O)/C(=N/Nc1ccccc1)Sc1nnc(C(O)c2ccccc2)n1-c1ccccc1 (stereo unspecified)	inactive
CC1(C)OC(=O)N(c2ccccc2)C12C=Cc1cc(Br)ccc1O2 (stereo unspecified)	inactive
CCCCc1ccc(-n2c(Cc3cccs3)n[nH]c2=S)cc1	inactive
